The record followed here is patent US20250026752A1, “POSITIVE ALLOSTERIC MODULATORS OF THE MUSCARINIC ACETYLCHOLINE RECEPTOR M4” (Vanderbilt University, priority 2021, published 2025).

The target of this experiment is T1, human mAChR M4 (Homo sapiens, UniProt P08173).
T1 construct: expressed in transfected cells; host or cells: CHO-K1 (ATCC), stably expressing hM4 and Gqi5
T1 sequence (P08173 1-479): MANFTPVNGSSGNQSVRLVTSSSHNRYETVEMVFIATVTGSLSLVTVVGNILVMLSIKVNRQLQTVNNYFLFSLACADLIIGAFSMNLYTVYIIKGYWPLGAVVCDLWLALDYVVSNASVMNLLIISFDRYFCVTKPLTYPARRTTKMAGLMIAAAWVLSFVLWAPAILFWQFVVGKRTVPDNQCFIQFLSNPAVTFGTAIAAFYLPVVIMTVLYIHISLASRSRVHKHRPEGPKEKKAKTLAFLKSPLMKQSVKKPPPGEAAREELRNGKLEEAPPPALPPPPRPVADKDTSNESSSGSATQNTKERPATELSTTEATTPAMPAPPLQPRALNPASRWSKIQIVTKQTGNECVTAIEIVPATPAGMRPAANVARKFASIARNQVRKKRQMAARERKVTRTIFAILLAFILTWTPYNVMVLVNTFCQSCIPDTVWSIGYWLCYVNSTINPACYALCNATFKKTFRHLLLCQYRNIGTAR
Nature of the experiment: mAChR M4 cell-based functional assay: calcium flux (Fluo-4, FDSS), positive allosteric modulator activity on the EC20 acetylcholine response, hM4-Gqi5 CHO-K1 cells. Particulars: for Emax at 30 µM: CHO-K1, human M4, % ACh maximum at 30 μM; for EC50: human M4, PAM activity on EC20 acetylcholine response, calcium flux, read-out: Human M4 EC50. The protocol: Human M4 cDNA, along with the chimeric G protein Gqi5, were transfected into Chinese hamster ovary (CHO-K1) cells purchased from the American Type Culture Collection using commercially available Lipofectamine 2000 transfection reagent (Dalby, B. et al., Methods (2004) 33(2), 95-103). hM4-Gqi5 cells were grown in Ham's F-12 medium containing 10% heat-inactivated fetal bovine serum (FBS), 20 mM […], 50 μg/mL G418 sulfate (CAS #108321-42-2), and 500 μg/mL Hygromycin B. rM4-Gqi5 cells were grown in DMEM containing 10% heat-inactivated FBS, 20 mM HEPES, 400 μg/mL G418 sulfate, and 500 μg/mL Hygromycin B.
For high throughput measurement of agonist-evoked increases in intracellular calcium, CHO-K1 cells stably expressing muscarinic receptors were plated in growth medium lacking G418 sulfate and hygromycin at 15,000 cells/20 μL/well in Greiner 384-well black-walled, tissue culture (TC)-treated, clear-bottom plates (VWR). Cells were incubated overnight at 37° C. and 5% C02. The next day, cells were washed using an ELX 405 (BioTek) with assay buffer; the final volume was then aspirated to 20 μL. Next, 20 μL of a 2.3 μM stock of Fluo-4/acetoxymethyl ester (Invitrogen, Carlsbad, CA), prepared as a 2.3 mM stock in DMSO and mixed in a 1:1 ratio with 10% (w/v) Pluronic F-127 and diluted in assay buffer, was added to the wells and the cell plates were incubated for 50 minutes at 37° C. and 5% C02. Dye was removed by washing with the ELX 405 and the final volume was aspirated to 20 μL. Compound master plates were formatted in an 11 point concentration-response curve (CRC) format (1:3 dilutions) in 100% DMSO with a starting concentration of 10 mM using a BRAVO liquid handler (Agilent). Test compound CRCs were then transferred to daughter plates (240 nL) using the Echo acoustic plate reformatter (Labcyte, Sunnyvale, CA) and then diluted into assay buffer (40 μL) to a 2× stock using a Thermo Fisher Combi (Thermo Fisher Scientific, Waltham, MA).
Calcium flux was measured using the Functional Drug Screening System (FDSS) 6000 or 7000 (Hamamatsu Corporation, Tokyo, Japan) as an increase in the fluorescent static ratio. Compounds were applied to cells (20 μL, 2×) using the automated system of the FDSS at 2-4 seconds into the protocol and the data were collected at 1 Hz. At 144 seconds, 10 μL of an EC20 concentration of the muscarinic receptor agonist acetylcholine was added (5×), followed by the addition of 12 μL of an EC80 concentration of acetylcholine at the 230 second time point (5×). Agonist activity was analyzed as a concentration-dependent increase in calcium mobilization upon compound addition. Positive allosteric modulator activity was analyzed as a concentration-dependent increase in the EC20 acetylcholine response. With the acetylcholine EC20 set as baseline, the test compound EC50 is determined as the concentration that produces an increase above baseline of 50% of the maximum increase in acetylcholine response elicted by the test compound. Antagonist activity was analyzed as a concentration-dependent decrease in the ECso acetylcholine response. Concentration-response curves were generated using a four-parameter logistical equation in XLFit curve fitting software (IDBS, Bridgewater, NJ) for Excel (Microsoft, Redmond, WA) or Prism (GraphPad Software, Inc., San Diego, CA).
Compounds were synthesized as described above. Activity (EC50 and Emax) was determined in the mAChR M4 cell-based functional assay as described above and the data are shown in Table 4. The compound numbers correspond to the compound numbers used in Examples 1-33 and Tables 1, 2, and 3.
In general terms: A change in cytosolic calcium serves as a functional read-out for many receptors and channels.

As for `Cc1nc(N2CCc3ncc(C(F)(F)F)cc3C2)c2ccc(F)cc2n1` [Compound 127, 7-fluoro-2-methyl-4-[3-(trifluoromethyl)-7,8-dihydro-5H-1,6-naphthyridin-6-yl]quinazoline], the Emax (commonly the maximal effect, on the per cent scale that the assay sets) at 30 µM turned out to be 63% and the EC50 (commonly the concentration that produces a half-maximal response) came to 0.43 µM.

With `Cn1cc(-c2cnc3c(c2)CN(c2ncnc4ccc(F)cc24)CC3)cn1` [Compound 15, 6-fluoro-4-[3-(1-methylpyrazol-4-yl)-7,8-dihydro-5H-1,6-naphthyridin-6-yl]quinazoline], the Emax at 30 µM turned out to be 105% and the EC50 came out at 0.04 µM.

As for `Cc1nc(N2CCc3ncc(-c4cnn(C)c4)cc3C2)c2cc(Cl)ccc2n1` [Compound 46, 6-chloro-2-methyl-4-[3-(1-methylpyrazol-4-yl)-7,8-dihydro-5H-1,6-naphthyridin-6-yl]quinazoline], the Emax at 30 µM turned out to be 97% and the EC50 was 0.17 µM.

Consider `Cc1nc(N2Cc3cc(C(F)(F)F)cnc3CC2C)c2cc(F)ccc2n1` (stereo not drawn) [Compound 156, 6-fluoro-2-methyl-4-[7-methyl-3-(trifluoromethyl)-7,8-dihydro-5H-1,6-naphthyridin-6-yl]quinazoline], for which the Emax at 30 µM was determined as 99% and the EC50 came to 0.22 µM.

On to `Cc1nc(N2CCc3ncc(-c4c(C)noc4C)cc3C2)c2cc(F)ccc2n1` [Compound 22, 4-[6-(6-fluoro-2-methyl-quinazolin-4-yl)-7,8-dihydro-5H-1,6-naphthyridin-3-yl]-3,5-dimethyl-isoxazole], for which the maximal response (Emax) at 30 µM is 90% and the EC50 stood at 0.12 µM.

Regarding `Fc1cccc(Cc2cnc3c(c2)CN(c2ncnc4ccc(F)cc24)CC3)c1` [Compound 114, 6-fluoro-4-[3-[(3-fluorophenyl)methyl]-7,8-dihydro-5H-1,6-naphthyridin-6-yl]quinazoline], the Emax at 30 µM came to 75% and the 50% effective concentration (EC50) turned out to be 0.59 µM.

Regarding `Fc1ccc2nc(N3CCOCC3)nc(N3CCc4ncc(C(F)(F)F)cc4C3)c2c1` [Compound 183, 4-[6-fluoro-4-[3-(trifluoromethyl)-7,8-dihydro-5H-1,6-naphthyridin-6-yl]quinazolin-2-yl]morpholine], the Emax at 30 µM came to 71% and the concentration giving a half-maximal response (EC50) was found to be 0.26 µM.

As to `Fc1ccc2ncnc(N3CCc4ncc(-c5ccc(C(F)(F)F)nc5)cc4C3)c2c1` [Compound 16, 6-fluoro-4-[3-[6-(trifluoromethyl)-3-pyridyl]-7,8-dihydro-5H-1,6-naphthyridin-6-yl]quinazoline], the Emax at 30 µM came to 89% and the EC50 is 0.36 µM.

Regarding `COc1ccc2ncnc(N3CCc4ncc(N5CCC(C(F)(F)F)n6nccc65)cc4C3)c2c1` (stereo not drawn) [Compound 90, 6-methoxy-4-[3-[7-(trifluoromethyl)-6,7-dihydro-5H-pyrazolo[1,5-a]pyrimidin-4-yl]-7,8-dihydro-5H-1,6-naphthyridin-6-yl]quinazoline], the maximal effect (Emax) at 30 µM worked out at 76% and the EC50 came to 1.36 µM.

As to `Fc1cc2ncnc(N3CCc4ncc(Oc5ccccc5F)cc4C3)c2cc1F` [Compound 158, 6,7-difluoro-4-[3-(2-fluorophenoxy)-7,8-dihydro-5H-1,6-naphthyridin-6-yl]quinazoline], the Emax at 30 µM was 80% and the EC50 was 0.27 µM.

`CC1CN(c2ncnc3ccc(Cl)cc23)Cc2cc(N3CCOCC3)cnc21` (stereo not drawn) [Compound 253, 4-(6-(6-chloroquinazolin-4-yl)-8-methyl-5,6,7,8-tetrahydro-1,6-naphthyridin-3-yl)morpholine]: the Emax at 30 µM amounted to 96% and the EC50 is 0.03 µM.

`Fc1cc2c(N3CCc4ncc(C(F)(F)F)cc4C3)nc(Cl)nc2cc1Cl` [Compound 171, 2,7-dichloro-6-fluoro-4-[3-(trifluoromethyl)-7,8-dihydro-5H-1,6-naphthyridin-6-yl]quinazoline]: the Emax at 30 µM amounted to 50% and the EC50 was found to be 1.28 µM.
